Several values for one entry are separate records, joined by “and”; a condition that tells them apart may be missing. Equal values may be shown once.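 Test compounds were applied to cells in 96-well plates for 48 hours at 5 doses. Here, GI50 denotes the concentration required for 50% inhibition of growth. TGI denotes the concentration required for complete inhibition of growth.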 Bounds are passed on as bounds.

What all share (test): NCI tumour cell line growth inhibition, 48 h
In experiment [1] the test system is SF-295 CNS.
Experiment [2] relates to IGROV1 ovarian.
The subject of experiment [3] is NCI-H460 lung.
Experiment [4] relates to KM12 colon.
Experiment [5] relates to HOP-62 NSCLC.
Experiment [6] deals with MOLT-4 leukemia.
In experiment [7] the test system is TK-10 renal.
For experiment [8], the system named is SNB-75 CNS.
The test system of experiment [9] is SF-268 CNS.

Turning to `COC(=O)Cc1cc(=O)n2c([nH]c3ccccc32)c1C#N`, the TGI in experiment [1], in experiment [2], in experiment [3], in [4], in experiment [5] and in [6] was greater than 100 µM in each case. Moreover, the TGI in experiment [7], in experiment [8] and in experiment [9] was greater than 100 µM each time.
For `C#Cc1cc(CN(CC(=O)OC(C)(C)C)CC(=O)OC(C)(C)C)nc(CN(CC(=O)OC(C)(C)C)CC(=O)OC(C)(C)C)c1`, the TGI in [1] is greater than 100 µM; in experiment [2], 26.7 µM; in experiment [3] it was greater than 100 µM; in experiment [4], 23 µM; in [5], 24.1 µM; in experiment [6], 6.33 µM. The TGI in experiment [7] is greater than 100 µM; in experiment [8], 43.4 µM; in [9], 44.8 µM.
Consider `c1ccc2c(c1)[nH]c1c2ncc2[nH]c3ccccc3c21`, for which the TGI is 11.4 µM in experiment [1]; 22.5 µM in experiment [2]; 5.44 µM in experiment [3]; 10.3 µM in [4]; 19.4 µM in [5]; 8.96 µM in experiment [6]. In addition, the TGI in [7] amounted to 20.1 µM; in [8], 12.1 µM; in [9], 36.8 µM.
Take `Cc1c(CC/C(=N\Nc2ccc([N+](=O)[O-])cc2[N+](=O)[O-])c2ccccc2)c2ccccc2n1C`: the TGI in experiment [1] was greater than 100 µM; in experiment [2] it was greater than 100 µM; in [3] it was greater than 100 µM; in experiment [4] it was greater than 100 µM; in [5] it was greater than 100 µM; in experiment [6] it was greater than 64.8 µM. Also, the TGI in [7], in experiment [8] and in [9] was greater than 100 µM throughout.
`Cc1ccc(NC(=O)CC2C(=O)Nc3ccccc3S2=O)c(C)c1` (centres undefined): the TGI in experiment [1] is 29.7 µM; in experiment [2] it was 42.1 µM; in experiment [3] it was greater than 64.3 µM; in experiment [4], greater than 100 µM; in experiment [5], 38.1 µM; in experiment [6], greater than 52.5 µM. In addition, the TGI in experiment [7] came to 56.5 µM; in experiment [8], 30 µM; in experiment [9] it was 65.3 µM.
In the case of `CCCCCCCCCCCCC(CCCCCCCCCCCC)OP(=O)(O)O`, the TGI in experiment [1], in experiment [2], in experiment [3], in experiment [4], in [5] and in [6] was greater than 100 µM in each case. In addition, the TGI in [7], in experiment [8] and in experiment [9] was greater than 100 µM each time.
For the compound `CCOC(=O)C(C(=O)OCC)=c1sc(=C(C(=O)OCC)C(=O)OCC)s1`, the TGI in experiment [1], in experiment [2], in [3], in experiment [4], in experiment [5] and in experiment [6] was greater than 100 µM throughout. Besides, the TGI in experiment [7], in experiment [8] and in [9] was greater than 100 µM in each case.
Turning to `COc1ccc(C2C3=C(COC3=O)Oc3cc4c(cc32)OCO4)cc1` (centres undefined), the TGI in experiment [1] was 69.6 µM; in experiment [2], greater than 100 µM; in experiment [3], greater than 100 µM; in [5] it was 51.7 µM; in experiment [6], 81.1 µM; in experiment [7] it was greater than 100 µM. In experiment [8], the TGI came to 39.7 µM.
Consider `Cn1sc2ccccc2c1=S`, for which the TGI was determined as 25.4 µM in experiment [1]; 31.7 µM in experiment [2]; 32.3 µM in experiment [3]; 25.3 µM in experiment [4]; 24.5 µM in experiment [5]; 14.1 µM in experiment [6]. For the same compound, the values for the TGI in [7], in experiment [8] and in experiment [9] were 44.8 µM, 17.4 µM and 9.79 µM, respectively.
On to `CC1=Nc2ccccc2C12C(c1ccccc1)C(c1ccccc1)C(=O)N1c3ccccc3CC12` (centres undefined), for which the TGI in experiment [1], in [2], in [3], in experiment [4], in [5] and in experiment [6] was greater than 100 µM in each case. For the same compound, the TGI in experiment [7] and in experiment [8] was greater than 100 µM each time.
For `COC(=O)[C@@]12C=CC(=O)[C@H]3C[C@@H](C(C(C)C)C1)[C@]32OC` (some centres undefined), the TGI in [1], in experiment [2], in experiment [3], in experiment [4], in experiment [5] and in experiment [6] was greater than 100 µM in each case. Moreover, the TGI in [7], in [8] and in experiment [9] was greater than 100 µM throughout.
On to `O=NN(CCCl)C(=O)N[C@H]1CCCC[C@@H]1Cl`, for which the TGI in [1], in experiment [2], in experiment [3], in experiment [4], in experiment [6] and in [7] was greater than 100 µM in each case. Further, the TGI in [8] and in [9] was greater than 100 µM each time.
For `COC(C)(C)[C@H](O)C(O)CC(C)[C@@H]1CCC23CC12CCC1[C@@]2(C)CCC(OC(C)=O)C(C)(C)C2CC(OC2OC(COC(C)=O)C(O)C(O)C2O)[C@]13C` (some centres undefined), the GI50 is 2.17 µM in experiment [1]; 3.59 µM in [2]; 4.69 µM in experiment [3]; 4.23 µM in experiment [4]; 0.00625 µM in experiment [6]; 10.7 µM in [7]. In addition, the values for the GI50 in experiment [8] and in experiment [9] were 4.32 µM and 6.87 µM, respectively. Further, the TGI in [1] is 10.1 µM and 7.53 µM; in [2], 8.11 µM and 15 µM; in [3] it was 10.3 µM and 14.7 µM; in experiment [4], 7.55 µM and 14.1 µM; in [5], 17.2 µM and 23.9 µM; in experiment [6], 26.7 µM and 15.8 µM. Also, the TGI is 14.9 µM and 23.4 µM in experiment [7]; 11.3 µM and 17.1 µM in experiment [8]; 12.4 µM and 21.3 µM in experiment [9].
As for `COC(=O)C1=C(C)N(NC(N)=O)C(C)(O)C12CCOC2=O` (centres undefined), the TGI in experiment [1], in experiment [2], in experiment [3], in experiment [4], in experiment [5] and in experiment [6] was greater than 100 µM each time. The TGI in experiment [7] and in experiment [9] was greater than 100 µM throughout.

(Values after PubChem BioAssay (NCI).)
